Laboratory results from BindingDB's records for doi:10.1021/jm00160a020 (1986).

Target: Platelet-activating factor receptor (Oryctolagus cuniculus)
Experiment: Inhibition of PAF receptor binding to rabbit platelet plasma membranes

IC50 [nM] | Structure (SMILES)
> 3000 | COc1ccc(C2CC[C@H](c3ccc(OC)c(OC)c3)O2)cc1OC (some centres not stated)
500 | COc1ccc([C@H]2CC[C@H](c3ccc(OC)c(OC)c3)O2)cc1OC
